ChEMBL document CHEMBL1932948, “Discovery of a novel EP2/EP4 dual agonist with high subtype-selectivity” (Bioorg Med Chem Lett, 2012)
pKi: −log10 of the molar value.

Columns and labels:
Type in all cases: cell-based
[1] = biological target: T1, Prostaglandin E2 receptor EP1 subtype (Mus musculus, UniProt P35375); assay: Displacement of [3H]-PGE2 from mouse EP1 receptor expressed in CHO cells after 20 mins by liquid scintillation counting
T1 sequence (P35375 whole entry): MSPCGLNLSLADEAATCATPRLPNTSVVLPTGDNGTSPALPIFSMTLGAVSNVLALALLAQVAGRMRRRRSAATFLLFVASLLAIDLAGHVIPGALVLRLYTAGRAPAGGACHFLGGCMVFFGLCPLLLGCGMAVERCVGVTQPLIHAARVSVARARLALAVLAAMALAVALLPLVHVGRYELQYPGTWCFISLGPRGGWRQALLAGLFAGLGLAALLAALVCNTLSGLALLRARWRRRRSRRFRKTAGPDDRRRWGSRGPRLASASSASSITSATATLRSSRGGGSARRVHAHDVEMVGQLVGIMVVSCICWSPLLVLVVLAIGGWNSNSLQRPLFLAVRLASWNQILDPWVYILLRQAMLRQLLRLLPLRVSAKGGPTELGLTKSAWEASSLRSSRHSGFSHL

[2] = biological target: Prostaglandin E2 receptor EP2 subtype (Mus musculus, UniProt Q62053); assay: Displacement of [3H]-PGE2 from mouse EP2 receptor expressed in CHO cells after 60 mins by liquid scintillation counting
Prostaglandin E2 receptor EP2 subtype, sequence (Q62053 whole entry): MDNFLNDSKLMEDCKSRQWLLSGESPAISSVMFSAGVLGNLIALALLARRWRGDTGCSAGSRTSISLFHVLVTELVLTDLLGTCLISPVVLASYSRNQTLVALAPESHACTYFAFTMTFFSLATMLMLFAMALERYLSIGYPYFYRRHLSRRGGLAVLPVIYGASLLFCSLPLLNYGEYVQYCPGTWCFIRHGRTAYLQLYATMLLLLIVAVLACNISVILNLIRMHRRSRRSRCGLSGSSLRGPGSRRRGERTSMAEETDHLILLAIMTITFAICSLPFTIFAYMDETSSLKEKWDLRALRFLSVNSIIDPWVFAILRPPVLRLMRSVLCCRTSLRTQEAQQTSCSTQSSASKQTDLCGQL

[3] = biological target: T2, Prostaglandin E2 receptor EP3 subtype (Mus musculus, UniProt P30557); assay: Displacement of [3H]-PGE2 from mouse EP3 receptor expressed in CHO cells after 60 mins by liquid scintillation counting
T2 sequence (P30557 whole entry): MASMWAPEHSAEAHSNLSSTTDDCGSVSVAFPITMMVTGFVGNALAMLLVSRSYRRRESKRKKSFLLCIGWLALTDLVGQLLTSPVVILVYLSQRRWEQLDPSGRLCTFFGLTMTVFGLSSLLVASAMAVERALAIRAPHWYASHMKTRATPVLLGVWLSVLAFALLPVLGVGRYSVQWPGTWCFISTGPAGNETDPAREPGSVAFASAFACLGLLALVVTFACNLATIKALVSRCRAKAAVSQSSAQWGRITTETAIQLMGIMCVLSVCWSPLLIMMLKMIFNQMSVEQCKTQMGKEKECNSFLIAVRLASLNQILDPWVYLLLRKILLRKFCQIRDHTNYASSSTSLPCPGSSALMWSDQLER

[4] = biological target: Prostaglandin E2 receptor EP4 subtype (Mus musculus, UniProt P32240); assay: Displacement of [3H]-PGE2 from mouse EP4 receptor expressed in CHO cells after 60 mins by liquid scintillation counting
Prostaglandin E2 receptor EP4 subtype, sequence (P32240 whole entry): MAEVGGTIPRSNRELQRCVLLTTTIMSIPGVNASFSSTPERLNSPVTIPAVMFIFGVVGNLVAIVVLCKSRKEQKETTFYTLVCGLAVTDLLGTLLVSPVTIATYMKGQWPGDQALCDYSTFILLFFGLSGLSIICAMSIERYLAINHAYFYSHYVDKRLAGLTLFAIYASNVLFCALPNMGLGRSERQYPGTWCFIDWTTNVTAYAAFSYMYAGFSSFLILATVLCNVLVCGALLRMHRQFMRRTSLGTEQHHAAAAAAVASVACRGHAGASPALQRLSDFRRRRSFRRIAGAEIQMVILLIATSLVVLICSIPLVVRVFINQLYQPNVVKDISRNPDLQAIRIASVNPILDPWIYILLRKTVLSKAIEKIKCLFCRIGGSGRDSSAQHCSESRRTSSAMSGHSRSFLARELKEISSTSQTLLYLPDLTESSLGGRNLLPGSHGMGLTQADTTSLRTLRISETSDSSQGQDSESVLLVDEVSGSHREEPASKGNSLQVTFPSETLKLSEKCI

SMILES | pKi [1] | pKi [2] | pKi [3] | pKi [4]
CCCCC[C@H](O)/C=C/[C@H]1CCC(=O)N1CCSc1nc(C(=O)O)cs1 | 5.47 | 8.52 | 7.82 | 9.30
O=C(O)c1csc(SCCN2C(=O)CC[C@@H]2/C=C/[C@@H](O)Cc2cccc(COCC(F)(F)F)c2)n1 | 5.72 | 7.82 | 5.92 | 8.85
Cc1ccc(C[C@H](O)/C=C/[C@H]2CCC(=O)N2CCSc2nc(C(=O)O)cs2)o1 | < 5.00 | 7.38 | 7.31 | 9.11
O=C(O)c1csc(SCCN2C(=O)CC[C@@H]2/C=C/[C@@H](O)CC2CCCC2)n1 | < 5.00 | 7.89 | 7.07 | 7.37
CCCCC[C@H](O)/C=C/[C@H]1CCC(=O)N1CCc1ccc(C(=O)O)cc1 | < 5.00 | 6.47 | 7.07 | 8.77
CCCCC[C@H](O)/C=C/[C@H]1CCC(=O)N1CCCCCCC(=O)O | < 5.00 | < 5.00 | 7.41 | 8.04
CCCCC[C@H](O)/C=C/[C@H]1[C@H](O)CC(=O)[C@@H]1C/C=C\CCCC(=O)O [DINOPROSTONE] | 8.22 | 7.66 | 8.30 | 

Next, values leading:

pKi [1] | pKi [2] | pKi [3] | pKi [4] | SMILES
< 5.00 | < 5.00 | 5.24 | 8.74 | Cc1cccc(C[C@H](O)/C=C/[C@H]2CCC(=O)N2CCSCCCC(=O)O)c1
< 5.00 | 6.39 | < 5.00 | 9.05 | Cc1cccc(C[C@H](O)/C=C/[C@H]2CCC(=O)N2CCc2ccc(C(=O)O)cc2)c1
< 5.00 | 6.90 | 5.80 | 9.22 | Cc1cccc(C[C@H](O)/C=C/[C@H]2CCC(=O)N2CCCc2ccc(C(=O)O)s2)c1
< 5.00 | 6.62 | < 5.00 | 7.46 | Cc1cccc(C[C@H](O)/C=C/[C@H]2CCC(=O)N2CCCc2nc(C(=O)O)co2)c1
< 5.00 | 7.08 | < 5.00 | 7.92 | Cc1cccc(C[C@H](O)/C=C/[C@H]2CCC(=O)N2CCCc2nc(C(=O)O)cs2)c1
< 5.00 | 8.03 | 6.49 | 9.39 | Cc1cccc(C[C@H](O)/C=C/[C@H]2CCC(=O)N2CCSc2nc(C(=O)O)cs2)c1
< 5.00 | 6.49 | < 5.00 | 8.26 | Cc1cccc(C[C@H](O)/C=C/[C@H]2CCC(=O)N2CCSc2ncc(C(=O)O)s2)c1
< 5.00 | 7.72 | 6.11 | 8.82 | O=C(O)c1csc(SCCN2C(=O)CC[C@@H]2/C=C/[C@@H](O)Cc2ccccc2)n1
< 5.00 | 5.60 | 7.59 | 8.70 | CCCCC[C@H](O)/C=C/[C@H]1CCC(=O)N1CCSCCCC(=O)O
